For `CC(=O)NCCN(C(=O)N1CCN(C(c2ccccc2)c2ccccc2)C[C@@H]1C(C)C)C1CCN(C(C)=O)CC1` [Example 16], which melting point is on record?
The melting point was 90 to 92 °C.

From patent US7476681B2, “17β-hydroxysteroid dehydrogenase type 3 inhibitors for the treatment of androgen dependent diseases” (Schering Corporation, priority 2002, dated 2009)
